# Assay results taken from US6709873B1, “Method for production of antibodies to specific sites of rapamycin” (Isodiagnostika Inc., priority 1997, dated 2004).
# Legend:
# lymphocytes = assay: In vitro mixed lymphocyte reaction (MLR) assay, two-way lymphocyte proliferation; assay type: cell-based; settings: Lymphocyte, 3H-thymidine incorporation
# Source text: The MLR assay is useful for identifying rapamycin metabolites with biological (immunosupressive) activity and to quantify this activity relative to the immunosuppressive activity of the parent rapamycin molecule.
# An example of a two-way lymphocyte proliferation assay procedure useful for this purpose is as follows:
# 1. Collect blood from two individuals (20 mls each) and isolate lymphocytes using Ficoll-Paque™ (polysucrose and sodium diatrizoate) (Pharmacia Biotech).
# 2. Count lymphocytes at 1:10 dilution in 2% acetic acid (v/v).
# 3. Prepare 10 mls of each lymphocyte populations (A+B) at 1×10^6 cells/ml in DMEM/20% FCS (v/v).
# 4. Set up a 96 well sterile tissue culture plate, flat bottom (Sarstedt, cat # 83.1835). To each well add:
# 5. Aliquot 100 μl per well lymphocyte population A
# 6. Aliquot 100 μl per well lymphocyte population B
# 7. Aliquot 20 μl per well of drug (rapamycin and rapamycin metabolites M1-5) serially diluted 0 to 1000 μg/L in triplicate in DMEM with no supplements.
# 8. […]
# 10. […] Wash cells 3× with 1.0-ml sterile distilled water.
# Note: All procedures are done using sterile techniques in a biological flow hood.
# 11. Place filters in Scintilation vials and add 1.5 mls of ScintiSafe Plus™ 50% scintillation fluid (Fisher, cat #SX-25-5).
# 12. Measure the amount of radioactivity incorporated in the lymphocytes using a beta counter (Micromedic System Inc., TAURUS™ Automatic Liquid Scintillation Counter) for 1.0 minute.
# 13. Calculate averages and standard deviations for each drug and express results as: [formula]
# [1] = Relative concentrations of Rapa metabolites in pooled whole blood patient samples (LC/MS); assay type: in vivo; settings: Rapa = 1
# Source text: No individual metabolite is found at a concentration greater than 20% of the Rapa parent level.
# [2] = [14C]-rapamycin, healthy male volunteers; cited from earlier work
structure (smiles),measurement,setting,value
"CO[C@H]1C[C@@H]2CC[C@@H](C)[C@@](O)(O2)C(=O)C(=O)N2CCCC[C@H]2C(=O)O[C@H]([C@H](C)C[C@@H]2CC[C@@H](O)[C@H](OC)C2)CC(=O)[C@H](C)/C=C(\C)[C@@H](O)[C@@H](OC)C(=O)[C@H](C)C[C@H](C)/C=C/C=C/C=C/1C [Rapa, Rapamycin]",IC50,lymphocytes,0.48 ng/mL
same,Relative Concentration in whole blood,[1],1
same,share of the total radioactivity in blood,[2],approximately 35%
